# Where two headings read alike, the source gives them in different places. No end group written: not given here.
# What was measured:
# RVFV (MP-12 strain) = format: cell-based, Rift Valley fever virus
# VEEV TC-83 [1] = format: cell-based, Venezuelan equine encephalitis virus
# VEEV TC-83 [2] = format: cell-based, Venezuelan equine encephalitis virus; remark: listed apart in the source
# [3] = test system: IFNγ, IL1α, IL1β, IL2, IL4, IL6, IL10, IL12p70, TNFα; format: cell-based, human
# [4] = test system: 84 human inflammatory cytokines and receptors; format: cell-based
# VEEV TC-83 [5] = format: cell-based, Venezuelan equine encephalitis virus; remark: listed apart in the source
# [6] = test system: IFNγ, IL1α, IL1β, IL2, IL4, IL6, IL10, IL12p70, TNFα; format: cell-based, human; remark: listed apart in the source
# VEEV TrD strain [7] = format: cell-based, Venezuelan equine encephalitis virus
# EEEV (GA97 strain) = format: cell-based, eastern equine encephalitis virus
# VEEV TC-83 [8] = format: cell-based, Venezuelan equine encephalitis virus; remark: listed apart in the source
# [9] = test system: 84 human inflammatory cytokines and receptors; format: cell-based; remark: listed apart in the source
# VEEV TrD strain [10] = format: cell-based, Venezuelan equine encephalitis virus; remark: listed apart in the source
# HMC3 cells = details: 24 h
# VEEV TC-83 [11] = format: cell-based, Venezuelan equine encephalitis virus; remark: listed apart in the source
# VEEV TC-83 [12] = format: cell-based, Venezuelan equine encephalitis virus; remark: listed apart in the source
# [13] = test system: VEEV TC-83 vaccine strain; details: cited from earlier work
# [14] = test system: wild-type Trinidad Donkey (TrD) strain of VEEV; details: cited from earlier work
substance,measurement,setting,value
FAVVKFRFWVWWFRWR-NH2 [A2],inhibition of replication of RVFV,RVFV (MP-12 strain),less than tenfold
same,decrease in TC-83 infectious titers,VEEV TC-83 [1],"~ 1,000 fold"
same,decrease in extracellular genomic TC-83 RNA copy numbers,VEEV TC-83 [2],more than 50%
same,decrease in intracellular genomic TC-83 RNA copy numbers,VEEV TC-83 [2],more than 50%
same,secretion of cytokines from TC-83 infected cells,[3],inhibit secretion of cytokines
same,"Fold Regulation, CCL2",[4],-2.07
same,genes above/below a twofold regulation change,[4],eight
same,inhibition of VEEV attachment (amount of viral RNA entering cells),VEEV TC-83 [5],inhibited VEEV attachment to cells
same,"production of cytokines, pro-inflammatory and anti-inflammatory, from uninfected cells",[6],decreased the production of cytokines
same,"TrD titer inhibition, cells treated at infection relative to pre-treated cells",VEEV TrD strain [7],tenfold
same,decrease of TrD titers,VEEV TrD strain [7],about 100 fold
same,inhibition of replication of EEEV,EEEV (GA97 strain),higher than tenfold
same,"lower levels of EEEV replication, pre-treated cells",EEEV (GA97 strain),~ 4.5 fold
same,genomic TC-83 RNA copy numbers (intracellular and extracellular),VEEV TC-83 [8],reduced
same,"Fold Regulation, AIMP1",[9],-2.17
same,"Fold Regulation, B2M",[9],-2.51
same,"Fold Regulation, C5",[9],-3.11
same,"Fold Regulation, CCL1",[9],-2.21
same,"Fold Regulation, CCL3",[9],-11.1
same,"Fold Regulation, CCL4",[9],-12.54
same,"Fold Regulation, CCL7",[9],-3.26
same,"Fold Regulation, CCL8",[9],-6.18
same,"Fold Regulation, CCL13",[9],-2.73
same,"Fold Regulation, CCL17",[9],-2.71
same,"Fold Regulation, CCL20",[9],-2.91
same,"Fold Regulation, CCL23",[9],-2.03
same,"Fold Regulation, CCL24",[9],-2.6
same,"Fold Regulation, CCL26",[9],-2.44
same,"Fold Regulation, CCR1",[9],-2.78
same,"Fold Regulation, CCR2",[9],-7.36
same,"Fold Regulation, CCR3",[9],-2.71
same,"Fold Regulation, CCR5",[9],-3.23
same,"Fold Regulation, CCR6",[9],-5.15
same,"Fold Regulation, CCR8",[9],-2.77
same,"Fold Regulation, CD40LG",[9],-8.44
same,"Fold Regulation, CSF1",[9],-2.23
same,"Fold Regulation, CSF2",[9],-7.67
same,"Fold Regulation, CSF3",[9],-8.01
same,"Fold Regulation, CXCL1",[9],-2.79
same,"Fold Regulation, CXCL2",[9],-2.97
same,"Fold Regulation, CXCL3",[9],-8.92
same,"Fold Regulation, CXCL5",[9],-3.43
same,"Fold Regulation, CXCL6",[9],-3.46
same,"Fold Regulation, CXCL8",[9],-4.74
same,"Fold Regulation, CXCL9",[9],-2.67
same,"Fold Regulation, CXCR1",[9],-4.9
same,"Fold Regulation, CXCR2",[9],-2.22
same,"Fold Regulation, FASLG",[9],-2.27
same,"Fold Regulation, HPRT1",[9],-2.53
same,"Fold Regulation, IFNA2",[9],-4.07
same,"Fold Regulation, IL1A",[9],-40.4
same,"Fold Regulation, IL1B",[9],-4.37
same,"Fold Regulation, IL1R1",[9],-2.63
same,"Fold Regulation, IL1RN",[9],2.19
same,"Fold Regulation, IL3",[9],-2.76
same,"Fold Regulation, IL5",[9],-5.46
same,"Fold Regulation, IL5RA",[9],-4.55
same,"Fold Regulation, IL7",[9],9.88
same,"Fold Regulation, IL9",[9],-3.51
same,"Fold Regulation, IL9R",[9],-2.48
same,"Fold Regulation, IL10RA",[9],-3.22
same,"Fold Regulation, IL10RB",[9],-2.31
same,"Fold Regulation, IL13",[9],-4.71
same,"Fold Regulation, IL15",[9],-2.47
same,"Fold Regulation, IL16",[9],-2.42
same,"Fold Regulation, IL17A",[9],-10.02
same,"Fold Regulation, IL17F",[9],-13.11
same,"Fold Regulation, IL21",[9],-2.43
same,"Fold Regulation, IL27",[9],-2.99
same,"Fold Regulation, LTA",[9],-4.72
same,"Fold Regulation, LTB",[9],-3.31
same,"Fold Regulation, NAMPT",[9],-2.42
same,"Fold Regulation, OSM",[9],-9.67
same,"Fold Regulation, RPLP0",[9],-2.88
same,"Fold Regulation, SPP1",[9],-2.4
same,"Fold Regulation, TNF",[9],-9.95
same,"Fold Regulation, TNFRSF11B",[9],-4.24
same,"Fold Regulation, TNFSF4",[9],-2.68
same,"Fold Regulation, TNFSF10",[9],-2.78
same,"Fold Regulation, TNFSF11",[9],-4.37
same,"Fold Regulation, TNFSF13",[9],-6.12
same,"Fold Regulation, TNFSF13B",[9],-3.19
same,genes down regulated (twofold),[9],67 genes
same,genes out of 84 with greater than twofold change in regulation,[9],71 genes
same,genes upregulated (greater than twofold),[9],4 genes
same,decrease of TrD titers,VEEV TrD strain [10],about 100 fold
same,CC50,HMC3 cells,greater than 250 µg/mL
FQAVKFRFWVWWFRWR-NH2 [A3],inhibition of replication of RVFV,RVFV (MP-12 strain),less than tenfold
same,decrease in TC-83 infectious titers,VEEV TC-83 [1],~ 100 fold
same,decrease in extracellular genomic TC-83 RNA copy numbers,VEEV TC-83 [2],more than 50%
same,decrease in intracellular genomic TC-83 RNA copy numbers,VEEV TC-83 [2],more than 50%
same,secretion of cytokines from TC-83 infected cells,[3],inhibit secretion of cytokines
same,"Fold Regulation, CCL13",[4],2.44
same,"Fold Regulation, CCL16",[4],3.4
same,"Fold Regulation, CCL22",[4],3.4
same,"Fold Regulation, CX3CR1",[4],2.38
same,"Fold Regulation, CXCL9",[4],3.12
same,"Fold Regulation, FASLG",[4],2.15
same,"Fold Regulation, IL9R",[4],2.56
same,"Fold Regulation, IL33",[4],3.21
same,genes above/below a twofold regulation change,[4],30 genes
same,genes down-regulated (twofold),[4],2 genes
same,genes upregulated (twofold),[4],28 genes
same,inhibition of VEEV attachment (amount of viral RNA entering cells),VEEV TC-83 [5],tenfold
same,"production of cytokines, pro-inflammatory and anti-inflammatory, from uninfected cells",[6],decreased the production of cytokines
same,"TrD inhibitory response, pre-treatment relative to no pre-treatment",VEEV TrD strain [7],tenfold
same,decrease of TrD titers,VEEV TrD strain [7],about 100 fold
same,inhibition of replication of EEEV,EEEV (GA97 strain),higher than tenfold
same,"lower levels of EEEV replication, pre-treated cells",EEEV (GA97 strain),~ 4.5 fold
same,genomic TC-83 RNA copy numbers (intracellular and extracellular),VEEV TC-83 [8],reduced
same,"Fold Regulation, C5",[9],-4.7
same,"Fold Regulation, CCL1",[9],-3.46
same,"Fold Regulation, CCL3",[9],-6.01
same,"Fold Regulation, CCL4",[9],-10.37
same,"Fold Regulation, CCL5",[9],-2.56
same,"Fold Regulation, CCL17",[9],-2.48
same,"Fold Regulation, CCL20",[9],-2.88
same,"Fold Regulation, CCL26",[9],-2.76
same,"Fold Regulation, CCR1",[9],-2.01
same,"Fold Regulation, CCR8",[9],-2.56
same,"Fold Regulation, CD40LG",[9],-13.61
same,"Fold Regulation, CSF1",[9],-2.16
same,"Fold Regulation, CSF2",[9],-6.65
same,"Fold Regulation, CSF3",[9],-2.47
same,"Fold Regulation, CX3CL1",[9],-40.25
same,"Fold Regulation, CXCL2",[9],-2.14
same,"Fold Regulation, CXCL3",[9],-7.92
same,"Fold Regulation, CXCL5",[9],-2.3
same,"Fold Regulation, CXCL8",[9],-3.42
same,"Fold Regulation, CXCL10",[9],-2.5
same,"Fold Regulation, CXCL12",[9],-2.21
same,"Fold Regulation, CXCL13",[9],-2.43
same,"Fold Regulation, IL1A",[9],-75.02
same,"Fold Regulation, IL1B",[9],-3.92
same,"Fold Regulation, IL1R1",[9],-2.45
same,"Fold Regulation, IL5",[9],-4.29
same,"Fold Regulation, IL5RA",[9],-6.83
same,"Fold Regulation, IL10RA",[9],-2.36
same,"Fold Regulation, IL10RB",[9],-3.04
same,"Fold Regulation, IL15",[9],-2.18
same,"Fold Regulation, IL16",[9],-2.19
same,"Fold Regulation, IL17F",[9],-17.44
same,"Fold Regulation, IL27",[9],-3.21
same,"Fold Regulation, LTB",[9],-2.77
same,"Fold Regulation, OSM",[9],-11.73
same,"Fold Regulation, RPLP0",[9],-2.15
same,"Fold Regulation, TNF",[9],-30.83
same,"Fold Regulation, TNFRSF11B",[9],-3.73
same,"Fold Regulation, TNFSF10",[9],-3.34
same,"Fold Regulation, TNFSF13B",[9],-4.76
same,genes down regulated (twofold),[9],60 genes
same,decrease of TrD titers,VEEV TrD strain [10],about 100 fold
same,CC50,HMC3 cells,greater than 250 µg/mL
FQVVKFRFWVWWFRWR [G8],VEEV TC-83 titer inhibition,VEEV TC-83 [11],"comparable to a known inhibitor, bortezomib"
"ILPWKWPWWPWRR-NH2 [Indolicidin, indolicidin]",antiviral activity against VEEV,VEEV TC-83 [12],no antiviral activity
"LL-37 (LLGDFFRKSKEKIGKEFKRIVQRIKDFLRNLVPRTES; Antibacterial peptide LL-37; UniProt P49913 134-170, looked up)",inhibition of viral titers,[13],approximately 100 fold
same,inhibition of viral titers,[14],"~1,000 fold"
